Data taken from patent publication US7417025B2, “Use of poly-α2,8-sialic acid mimetic peptides to modulate NCAM functions” (Centre National de la Recherche Scientifique, priority 2002, dated 2008).

Tests used:
mAb 735 = assay: Competitive ELISA of biotinylated peptide-BSA conjugates on anti-PSA mAb; type: binding; conditions: for Binding of peptide to mAb 735 in competitive ELISA (percentage of binding): biotinylated peptide-BSA conjugate
Description: • mAb 735 and 30H12 • MaxiSorp™ plates (NUNC) for coating the antibody: ELISA plates • microtiter plates (NUNC) for peptide dilution: dilution plates • Biotinylated peptide-BSA conjugates prepared as above described • Extravidin alkaline phosphatase-avidin conjugate (SIGMA E2636) • p-nitrophenyl-phosphatase alkaline substrate (SIGMA 104-105) 2.1.2) Buffers • PBS pH 7.4 • Blocking solution: 0.5% BSA in PBS • TBS • TBST: TBS containing 0.05% Tween 20 • Extravidin alkaline phosphatase-avidin conjugate solution: 1/5000 in TBST • Alkaline phosphatase substrate solution; 1 tablet in 5 ml 50 mM NaHCO3, 1 mM MgCl2 solution, […]) Method
(§1) Maxisorp™ plate wells were coated with 100 μl mAb solution (25 μg/ml) for 2 h at room temperature. The control wells of the ELISA plates were only coated with the blocking solution. In parallel, the peptide-BSA conjugate dilution plates were blocked with 200 μl blocking solution for 2 h. The antibody coated wells and the control wells were blocked with 200 μl blocking solution for 1 h. In parallel the peptide-BSA conjugate dilution plates were washed 6 times with TBST and 120 μl TBST was added to the wells. An appropriate volume of peptide-BSA conjugate solution was added to the first well and the volume adjusted to 140 μl with TBST. The peptide-BSA conjugate in well one was diluted in the ratio 1/7 by taking 20 μl out of the first well and transferring into the second also to achieve the total volume of 140 μl. This was repeated for the remaining wells. The peptide-BSA conjugate dilutions for the control wells were done the same way. The blocked ELISA plates were washed 6 times with TBST and the peptide-BSA conjugate dilutions or 100 μl of the mixed competitor solution was added to the wells. After incubation for 1 h, the wells were washed 10 times with TBST and 100 μl of the alkaline phosphatase substrate solution was added to the wells. The plates were read out after 10 to 60 min using a microplate reader at 405 nm.
(§2) The specificity of peptide p21 (SEQ ID NO: 1) was investigated in a competition ELISA using biotinylated p21-BSA conjugate and a randomized variant of p21 (p22) conjugate as a control. The results presented in Tables X and XI are expressed as percentage of binding by comparison with peptide p21 at the highest concentration (9.45 10^-5 M) which corresponds to 100% binding.

BSA = BSA (Bos taurus, UniProt P02769); assay: Peptide-BSA conjugate ELISA, control wells coated only with blocking solution (BSA); type: binding; conditions: biotinylated peptide-BSA conjugate, BSA-blocked wells, no mAb
Sequence of BSA (P02769 25-607): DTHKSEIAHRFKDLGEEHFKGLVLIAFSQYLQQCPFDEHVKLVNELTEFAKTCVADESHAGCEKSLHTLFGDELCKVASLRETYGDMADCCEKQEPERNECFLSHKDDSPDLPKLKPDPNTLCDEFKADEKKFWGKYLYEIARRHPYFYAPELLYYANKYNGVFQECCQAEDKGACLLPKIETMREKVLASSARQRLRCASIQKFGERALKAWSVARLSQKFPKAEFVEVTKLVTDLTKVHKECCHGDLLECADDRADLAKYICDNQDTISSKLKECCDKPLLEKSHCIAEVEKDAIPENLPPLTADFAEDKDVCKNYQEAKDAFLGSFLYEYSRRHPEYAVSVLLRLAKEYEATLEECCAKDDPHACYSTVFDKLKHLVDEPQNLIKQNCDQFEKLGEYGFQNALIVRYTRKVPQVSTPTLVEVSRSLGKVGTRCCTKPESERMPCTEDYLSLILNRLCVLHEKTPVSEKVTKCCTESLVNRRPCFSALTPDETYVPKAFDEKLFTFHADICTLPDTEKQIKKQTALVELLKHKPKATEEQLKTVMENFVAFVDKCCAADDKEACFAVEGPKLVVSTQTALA
Description: • mAb 735 and 30H12 • MaxiSorp™ plates (NUNC) for coating the antibody: ELISA plates • microtiter plates (NUNC) for peptide dilution: dilution plates • Biotinylated peptide-BSA conjugates prepared as above described • Extravidin alkaline phosphatase-avidin conjugate (SIGMA E2636) • p-nitrophenyl-phosphatase alkaline substrate (SIGMA 104-105) 2.1.2) Buffers • PBS pH 7.4 • Blocking solution: 0.5% BSA in PBS • TBS • TBST: TBS containing 0.05% Tween 20 • Extravidin alkaline phosphatase-avidin conjugate solution: 1/5000 in TBST • Alkaline phosphatase substrate solution; 1 tablet in 5 ml 50 mM NaHCO3, 1 mM MgCl2 solution, pH 9.6. • mixed competitor solution: 1 mM colominic acid with a peptide-BSA conjugate gradient in TBST 2.1.3) Method
as §1, §2

[1] = peptide-BSA conjugate, in words

With PDHIFVFSPDLP [p22, reference compound] as the sequence, how does the “Binding of peptide to mAb 735 in competitive ELISA (percentage of binding)” value (mAb 735; peptide 1.62 10^−9 M, + chondroitin sulfate C) read?
The value was 2 ± 0%.

What about the “Binding of peptide to mAb 735 in competitive ELISA (percentage of binding)” value (mAb 735; peptide 1.62 10^−9 M, + colominic acid 1 mM) of the same sequence?
Its value is 0 ± 0%.

What about the “Binding of peptide to mAb 735 in competitive ELISA (percentage of binding)” value (mAb 735; peptide 1.62 10^−9 M, no competitor) of the same sequence?
Its value is 0 ± 0%.

What about the “Binding of peptide to mAb 735 in competitive ELISA (percentage of binding)” value (mAb 735; peptide 1.67 10^−5 M, + chondroitin sulfate C) of the same sequence?
The value was 8 ± 1%.

And the “Binding of peptide to mAb 735 in competitive ELISA (percentage of binding)” value (mAb 735; peptide 1.67 10^−5 M, + colominic acid 1 mM)?
The value was 5 ± 0%.

And the “Binding of peptide to mAb 735 in competitive ELISA (percentage of binding)” value (mAb 735; peptide 1.67 10^−5 M, no competitor)?
Its value is 9 ± 0%.

What about the “Binding of peptide to mAb 735 in competitive ELISA (percentage of binding)” value (mAb 735; peptide 2.86 10^−9 M, + chondroitin sulfate C) of the same sequence?
The value was 2 ± 0%.

And the “Binding of peptide to mAb 735 in competitive ELISA (percentage of binding)” value (mAb 735; peptide 2.86 10^−9 M, + colominic acid 1 mM)?
Its value is 0 ± 0%.

And the “Binding of peptide to mAb 735 in competitive ELISA (percentage of binding)” value (mAb 735; peptide 2.86 10^−9 M, no competitor)?
Its value is 0 ± 0%.

And the “Binding of peptide to mAb 735 in competitive ELISA (percentage of binding)” value (mAb 735; peptide 2.94 10^−6 M, + chondroitin sulfate C)?
The value was 3 ± 1%.

And the “Binding of peptide to mAb 735 in competitive ELISA (percentage of binding)” value (mAb 735; peptide 2.94 10^−6 M, + colominic acid 1 mM)?
Its value is 0 ± 0%.

What about the “Binding of peptide to mAb 735 in competitive ELISA (percentage of binding)” value (mAb 735; peptide 2.94 10^−6 M, no competitor) of the same sequence?
The value was 1 ± 0%.

And the “Binding of peptide to mAb 735 in competitive ELISA (percentage of binding)” value (mAb 735; peptide 5.04 10^−10 M, + chondroitin sulfate C)?
Its value is 2 ± 0%.

What about the “Binding of peptide to mAb 735 in competitive ELISA (percentage of binding)” value (mAb 735; peptide 5.04 10^−10 M, + colominic acid 1 mM) of the same sequence?
The value was 0 ± 0%.

And the “Binding of peptide to mAb 735 in competitive ELISA (percentage of binding)” value (mAb 735; peptide 5.04 10^−10 M, no competitor)?
The value was 0 ± 0%.

What about the “Binding of peptide to mAb 735 in competitive ELISA (percentage of binding)” value (mAb 735; peptide 5.20 10^−7 M, + chondroitin sulfate C) of the same sequence?
The value was 2 ± 0%.

And the “Binding of peptide to mAb 735 in competitive ELISA (percentage of binding)” value (mAb 735; peptide 5.20 10^−7 M, + colominic acid 1 mM)?
Its value is 0 ± 0%.

And the “Binding of peptide to mAb 735 in competitive ELISA (percentage of binding)” value (mAb 735; peptide 5.20 10^−7 M, no competitor)?
Its value is 0 ± 0%.

And the “Binding of peptide to mAb 735 in competitive ELISA (percentage of binding)” value (mAb 735; peptide 8.89 10^−11 M, + chondroitin sulfate C)?
Its value is 2 ± 0%.

And the “Binding of peptide to mAb 735 in competitive ELISA (percentage of binding)” value (mAb 735; peptide 8.89 10^−11 M, + colominic acid 1 mM)?
Its value is 0 ± 0%.

And the “Binding of peptide to mAb 735 in competitive ELISA (percentage of binding)” value (mAb 735; peptide 8.89 10^−11 M, no competitor)?
Its value is 0 ± 0%.

What about the “Binding of peptide to mAb 735 in competitive ELISA (percentage of binding)” value (mAb 735; peptide 9.27 10^−8 M, + chondroitin sulfate C) of the same sequence?
Its value is 2 ± 1%.

What about the “Binding of peptide to mAb 735 in competitive ELISA (percentage of binding)” value (mAb 735; peptide 9.27 10^−8 M, + colominic acid 1 mM) of the same sequence?
Its value is 0 ± 0%.

What about the “Binding of peptide to mAb 735 in competitive ELISA (percentage of binding)” value (mAb 735; peptide 9.27 10^−8 M, no competitor) of the same sequence?
Its value is 0 ± 0%.

What about the “Binding of peptide to mAb 735 in competitive ELISA (percentage of binding)” value (mAb 735; peptide 9.45 10^−5 M, + chondroitin sulfate C) of the same sequence?
Its value is 29 ± 0%.

What about the “Binding of peptide to mAb 735 in competitive ELISA (percentage of binding)” value (mAb 735; peptide 9.45 10^−5 M, + colominic acid 1 mM) of the same sequence?
Its value is 27 ± 0%.

What about the “Binding of peptide to mAb 735 in competitive ELISA (percentage of binding)” value (mAb 735; peptide 9.45 10^−5 M, no competitor) of the same sequence?
Its value is 32 ± 1%.

What about the “Binding of peptide to mAb 735” value (mAb 735; [1]) of the same sequence?
The value was “no binding”.

And the “Effect of colominic acid or chondroitin sulfate C on binding to mAb 735” value (mAb 735; [1])?
The value was “no differences were observed”.

What about the “Binding of peptide to BSA control wells (percentage of binding)” value (BSA; peptide 1.62 10^−9 M) of the same sequence?
Its value is 0 ± 0%.

And the “Binding of peptide to BSA control wells (percentage of binding)” value (BSA; peptide 1.67 10^−5 M)?
Its value is 1 ± 1%.

And the “Binding of peptide to BSA control wells (percentage of binding)” value (BSA; peptide 2.86 10^−9 M)?
Its value is 0 ± 0%.

And the “Binding of peptide to BSA control wells (percentage of binding)” value (BSA; peptide 2.94 10^−6 M)?
Its value is 0 ± 0%.

What about the “Binding of peptide to BSA control wells (percentage of binding)” value (BSA; peptide 5.04 10^−10 M) of the same sequence?
Its value is 0 ± 0%.

What about the “Binding of peptide to BSA control wells (percentage of binding)” value (BSA; peptide 5.20 10^−7 M) of the same sequence?
The value was 0 ± 0%.

What about the “Binding of peptide to BSA control wells (percentage of binding)” value (BSA; peptide 8.89 10^−11 M) of the same sequence?
The value was 0 ± 0%.

And the “Binding of peptide to BSA control wells (percentage of binding)” value (BSA; peptide 9.27 10^−8 M)?
Its value is 0 ± 0%.

What about the “Binding of peptide to BSA control wells (percentage of binding)” value (BSA; peptide 9.45 10^−5 M) of the same sequence?
The value was 3 ± 1%.
